Experiments:
Settings in all cases: Compound concentration 10.0 uM
[1] = target: Tyrosine-protein kinase ABL1 (Homo sapiens) (UniProt P00519); assay: Abl(h) Millipore kinase panel
[2] = target: ALK tyrosine kinase receptor (Homo sapiens) (UniProt Q9UM73); assay: ALK(h) Millipore kinase panel
Rattus norvegicus = organism: Rattus norvegicus; assay: AMPK(r) Millipore kinase panel
[3] = target: Tyrosine-protein kinase BTK (Homo sapiens) (UniProt Q06187); assay: BTK(h) Millipore kinase panel
[4] = target: Calcium/calmodulin-dependent protein kinase type 1 (Homo sapiens) (UniProt Q14012); assay: CaMKI(h) Millipore kinase panel
[5] = target: Cyclin-dependent kinase 2 (Homo sapiens) (UniProt P24941); assay: CDK2/cyclinA(h) Millipore kinase panel
[6] = target: Serine/threonine-protein kinase Chk2 (Homo sapiens) (UniProt O96017); assay: CHK2(h) Millipore kinase panel
[7] = target: Casein kinase I isoform delta (Homo sapiens) (UniProt P48730); assay: CK1δ(h) Millipore kinase panel
Homo sapiens = organism: Homo sapiens; assay: CK2(h) Millipore kinase panel
[8] = target: Dual specificity protein kinase CLK3 (Homo sapiens) (UniProt P49761); assay: CLK3(h) Millipore kinase panel
[9] = target: RAF proto-oncogene serine/threonine-protein kinase (Homo sapiens) (UniProt P04049); assay: c-RAF(h) Millipore kinase panel
[10] = target: Tyrosine-protein kinase CSK (Homo sapiens) (UniProt P41240); assay: CSK(h) Millipore kinase panel
[11] = target: Proto-oncogene tyrosine-protein kinase Src (Homo sapiens) (UniProt P12931); assay: cSRC(h) Millipore kinase panel
[12] = target: Death-associated protein kinase 1 (Homo sapiens) (UniProt P53355); assay: DAPK1(h) Millipore kinase panel
[13] = target: Serine/threonine-protein kinase DCLK2 (Homo sapiens) (UniProt Q8N568); assay: DCAMKL2(h) Millipore kinase panel
[14] = target: Discoidin domain-containing receptor 2 (Homo sapiens) (UniProt Q16832); assay: DDR2(h) Millipore kinase panel
[15] = target: Epidermal growth factor receptor (Homo sapiens) (UniProt P00533); assay: EGFR(h) Millipore kinase panel
[16] = target: Ephrin type-A receptor 1 (Homo sapiens) (UniProt P21709); assay: EphA1(h) Millipore kinase panel
[17] = target: Focal adhesion kinase 1 (Homo sapiens) (UniProt Q05397); assay: FAK(h) Millipore kinase panel
[18] = target: Tyrosine-protein kinase Fer (Homo sapiens) (UniProt P16591); assay: Fer(h) Millipore kinase panel
[19] = target: Glycogen synthase kinase-3 alpha (Homo sapiens) (UniProt P49840); assay: GSK3α(h) Millipore kinase panel
[20] = target: Glycogen synthase kinase-3 beta (Homo sapiens) (UniProt P49841); assay: GSK3β(h) Millipore kinase panel
[21] = target: Interleukin-1 receptor-associated kinase 1 (Homo sapiens) (UniProt P51617); assay: IRAK1(h) Millipore kinase panel
[22] = target: Interleukin-1 receptor-associated kinase 4 (Homo sapiens) (UniProt Q9NWZ3); assay: IRAK4(h) Millipore kinase panel
[23] = target: Tyrosine-protein kinase JAK2 (Homo sapiens) (UniProt O60674); assay: JAK2(h) Millipore kinase panel
[24] = target: Mitogen-activated protein kinase 8 (Homo sapiens) (UniProt P45983); assay: JNK1α1(h) Millipore kinase panel
[25] = target: LIM domain kinase 1 (Homo sapiens) (UniProt P53667); assay: LIMK1(h) Millipore kinase panel
[26] = target: Serine/threonine-protein kinase STK11 (Homo sapiens) (UniProt Q15831); assay: LKB1(h) Millipore kinase panel
[27] = target: Mitogen-activated protein kinase kinase kinase 9 (Homo sapiens) (UniProt P80192); assay: MLK1(h) Millipore kinase panel
[28] = target: Ribosomal protein S6 kinase alpha-5 (Homo sapiens) (UniProt O75582); assay: MSK1(h) Millipore kinase panel
[29] = target: Muscle, skeletal receptor tyrosine-protein kinase (Homo sapiens) (UniProt O15146); assay: MuSK(h) Millipore kinase panel
[30] = target: Serine/threonine-protein kinase Nek2 (Homo sapiens) (UniProt P51955); assay: NEK2(h) Millipore kinase panel
[31] = target: Ribosomal protein S6 kinase beta-1 (Homo sapiens) (UniProt P23443); assay: p70S6K(h) Millipore kinase panel
[32] = target: Serine/threonine-protein kinase pim-1 (Homo sapiens) (UniProt P11309); assay: Pim-1(h) Millipore kinase panel
[33] = target: cAMP-dependent protein kinase catalytic subunit alpha (Homo sapiens) (UniProt P17612); assay: PKA(h) Millipore kinase panel
[34] = target: RAC-alpha serine/threonine-protein kinase (Homo sapiens) (UniProt P31749); assay: PKBα(h) Millipore kinase panel
[35] = target: RAC-beta serine/threonine-protein kinase (Homo sapiens) (UniProt P31751); assay: PKBβ(h) Millipore kinase panel
[36] = target: RAC-gamma serine/threonine-protein kinase (Homo sapiens) (UniProt Q9Y243); assay: PKBγ(h) Millipore kinase panel
[37] = target: Protein kinase C alpha type (Homo sapiens) (UniProt P17252); assay: PKCα(h) Millipore kinase panel
[38] = target: Serine/threonine-protein kinase D2 (Homo sapiens) (UniProt Q9BZL6); assay: PKD2(h) Millipore kinase panel
[39] = target: cGMP-dependent protein kinase 1 (Homo sapiens) (UniProt Q13976); assay: PKG1α(h) Millipore kinase panel
[40] = target: Serine/threonine-protein kinase PLK3 (Homo sapiens) (UniProt Q9H4B4); assay: Plk3(h) Millipore kinase panel
[41] = target: Proto-oncogene tyrosine-protein kinase receptor Ret (Homo sapiens) (UniProt P07949); assay: Ret(h) Millipore kinase panel
[42] = target: Proto-oncogene tyrosine-protein kinase ROS (Homo sapiens) (UniProt P08922); assay: Ros(h) Millipore kinase panel
[43] = target: Serine/threonine-protein kinase Sgk1 (Homo sapiens) (UniProt O00141); assay: SGK(h) Millipore kinase panel
[44] = target: Serine/threonine-protein kinase 33 (Homo sapiens) (UniProt Q9BYT3); assay: STK33(h) Millipore kinase panel
[45] = target: Tyrosine-protein kinase SYK (Homo sapiens) (UniProt P43405); assay: Syk(h) Millipore kinase panel
[46] = target: Angiopoietin-1 receptor (Homo sapiens) (UniProt Q02763); assay: Tie2(h) Millipore kinase panel
[47] = target: High affinity nerve growth factor receptor (Homo sapiens) (UniProt P04629); assay: TrkA(h) Millipore kinase panel
[48] = target: Testis-specific serine/threonine-protein kinase 1 (Homo sapiens) (UniProt Q9BXA7); assay: TSSK1(h) Millipore kinase panel

Measured: inhibition

Sequence of Serine/threonine-protein kinase Chk2 (Homo sapiens) (O96017 whole entry, canonical isoform): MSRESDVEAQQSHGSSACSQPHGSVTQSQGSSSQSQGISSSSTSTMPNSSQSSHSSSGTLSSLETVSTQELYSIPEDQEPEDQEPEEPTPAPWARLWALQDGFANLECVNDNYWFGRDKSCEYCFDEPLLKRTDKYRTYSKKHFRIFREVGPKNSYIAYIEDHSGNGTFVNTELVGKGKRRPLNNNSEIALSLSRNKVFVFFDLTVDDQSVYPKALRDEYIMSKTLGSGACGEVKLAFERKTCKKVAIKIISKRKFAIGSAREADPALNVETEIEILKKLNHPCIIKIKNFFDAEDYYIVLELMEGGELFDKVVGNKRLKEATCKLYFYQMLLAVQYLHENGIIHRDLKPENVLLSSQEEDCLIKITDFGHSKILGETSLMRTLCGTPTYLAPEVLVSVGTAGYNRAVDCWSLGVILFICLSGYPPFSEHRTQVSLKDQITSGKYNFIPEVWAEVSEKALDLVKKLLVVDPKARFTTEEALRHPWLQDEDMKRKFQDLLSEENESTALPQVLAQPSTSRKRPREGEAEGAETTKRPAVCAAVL
Sequence of Calcium/calmodulin-dependent protein kinase type 1 (Homo sapiens) (Q14012 whole entry, looked up): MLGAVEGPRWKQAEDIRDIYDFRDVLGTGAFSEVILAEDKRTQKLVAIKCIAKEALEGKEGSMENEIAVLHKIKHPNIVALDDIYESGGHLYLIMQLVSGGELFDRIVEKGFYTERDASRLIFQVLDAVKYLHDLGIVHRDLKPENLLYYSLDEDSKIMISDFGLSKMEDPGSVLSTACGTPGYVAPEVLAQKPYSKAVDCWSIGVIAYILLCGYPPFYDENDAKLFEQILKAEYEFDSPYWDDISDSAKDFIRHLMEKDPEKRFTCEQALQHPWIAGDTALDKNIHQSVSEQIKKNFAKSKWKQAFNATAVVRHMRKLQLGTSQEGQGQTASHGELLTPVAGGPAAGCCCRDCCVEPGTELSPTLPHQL
Sequence of cGMP-dependent protein kinase 1 (Homo sapiens) (Q13976 whole entry): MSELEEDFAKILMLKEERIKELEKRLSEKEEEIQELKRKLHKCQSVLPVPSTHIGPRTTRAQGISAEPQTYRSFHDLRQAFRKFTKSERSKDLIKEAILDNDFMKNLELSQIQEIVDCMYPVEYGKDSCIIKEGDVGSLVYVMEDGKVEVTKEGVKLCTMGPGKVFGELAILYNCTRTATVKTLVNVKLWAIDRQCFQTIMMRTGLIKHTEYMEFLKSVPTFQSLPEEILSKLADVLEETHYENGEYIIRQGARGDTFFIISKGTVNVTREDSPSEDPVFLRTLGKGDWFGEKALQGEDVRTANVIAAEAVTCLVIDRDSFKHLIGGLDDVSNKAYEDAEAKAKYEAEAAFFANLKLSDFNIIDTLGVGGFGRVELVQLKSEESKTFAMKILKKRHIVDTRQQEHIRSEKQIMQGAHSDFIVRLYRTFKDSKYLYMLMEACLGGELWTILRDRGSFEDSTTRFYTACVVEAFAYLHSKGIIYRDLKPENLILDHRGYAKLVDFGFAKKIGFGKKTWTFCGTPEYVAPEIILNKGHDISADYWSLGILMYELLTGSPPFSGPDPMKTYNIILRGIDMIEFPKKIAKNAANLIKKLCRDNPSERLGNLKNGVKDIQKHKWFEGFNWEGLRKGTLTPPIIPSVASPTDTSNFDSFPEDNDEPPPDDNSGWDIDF
Sequence of RAC-alpha serine/threonine-protein kinase (Homo sapiens) (P31749 whole entry): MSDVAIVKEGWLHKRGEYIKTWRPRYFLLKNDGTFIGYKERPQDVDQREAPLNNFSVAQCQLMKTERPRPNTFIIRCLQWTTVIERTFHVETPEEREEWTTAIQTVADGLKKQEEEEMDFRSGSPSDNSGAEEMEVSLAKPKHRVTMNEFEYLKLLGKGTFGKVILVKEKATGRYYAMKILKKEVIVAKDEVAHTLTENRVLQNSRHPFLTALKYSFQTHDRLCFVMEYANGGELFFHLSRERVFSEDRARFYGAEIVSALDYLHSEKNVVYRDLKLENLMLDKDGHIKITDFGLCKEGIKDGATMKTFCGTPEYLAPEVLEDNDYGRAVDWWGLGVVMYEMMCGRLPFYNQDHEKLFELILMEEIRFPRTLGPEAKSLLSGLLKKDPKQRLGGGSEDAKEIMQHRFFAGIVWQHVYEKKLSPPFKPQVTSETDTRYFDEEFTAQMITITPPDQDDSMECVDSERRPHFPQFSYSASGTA
Sequence of Interleukin-1 receptor-associated kinase 1 (Homo sapiens) (P51617 whole entry, looked up): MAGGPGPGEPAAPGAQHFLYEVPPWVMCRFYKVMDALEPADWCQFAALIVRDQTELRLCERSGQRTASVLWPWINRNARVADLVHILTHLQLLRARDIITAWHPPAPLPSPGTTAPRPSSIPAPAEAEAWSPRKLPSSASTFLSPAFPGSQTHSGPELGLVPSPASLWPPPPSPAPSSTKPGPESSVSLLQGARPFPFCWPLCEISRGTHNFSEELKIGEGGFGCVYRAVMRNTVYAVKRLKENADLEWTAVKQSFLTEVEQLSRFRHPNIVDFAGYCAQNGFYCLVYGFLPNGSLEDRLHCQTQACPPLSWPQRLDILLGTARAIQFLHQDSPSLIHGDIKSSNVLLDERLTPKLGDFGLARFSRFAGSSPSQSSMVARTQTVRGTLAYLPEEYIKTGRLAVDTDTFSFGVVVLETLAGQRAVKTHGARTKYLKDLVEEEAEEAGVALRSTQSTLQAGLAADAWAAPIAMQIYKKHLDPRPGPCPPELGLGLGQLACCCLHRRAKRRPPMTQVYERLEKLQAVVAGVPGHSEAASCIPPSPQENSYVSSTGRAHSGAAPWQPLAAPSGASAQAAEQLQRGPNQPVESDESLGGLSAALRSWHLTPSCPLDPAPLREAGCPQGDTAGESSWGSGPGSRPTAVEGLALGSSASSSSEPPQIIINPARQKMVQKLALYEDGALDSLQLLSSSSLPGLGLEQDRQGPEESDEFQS
Sequence of Serine/threonine-protein kinase STK11 (Homo sapiens) (Q15831 whole entry): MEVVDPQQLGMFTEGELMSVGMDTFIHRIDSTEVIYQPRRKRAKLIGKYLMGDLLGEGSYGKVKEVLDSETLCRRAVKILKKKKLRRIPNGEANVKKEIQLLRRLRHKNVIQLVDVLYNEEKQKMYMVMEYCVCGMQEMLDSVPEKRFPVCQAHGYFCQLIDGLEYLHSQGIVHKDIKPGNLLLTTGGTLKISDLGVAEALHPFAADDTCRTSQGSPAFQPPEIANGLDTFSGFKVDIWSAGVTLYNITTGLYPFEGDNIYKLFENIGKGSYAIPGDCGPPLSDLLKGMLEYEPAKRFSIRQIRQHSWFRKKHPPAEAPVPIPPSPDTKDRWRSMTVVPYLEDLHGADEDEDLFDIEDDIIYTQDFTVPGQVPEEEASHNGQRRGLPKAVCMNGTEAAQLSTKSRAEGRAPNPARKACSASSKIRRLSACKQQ
Sequence of Tyrosine-protein kinase BTK (Homo sapiens) (Q06187 whole entry): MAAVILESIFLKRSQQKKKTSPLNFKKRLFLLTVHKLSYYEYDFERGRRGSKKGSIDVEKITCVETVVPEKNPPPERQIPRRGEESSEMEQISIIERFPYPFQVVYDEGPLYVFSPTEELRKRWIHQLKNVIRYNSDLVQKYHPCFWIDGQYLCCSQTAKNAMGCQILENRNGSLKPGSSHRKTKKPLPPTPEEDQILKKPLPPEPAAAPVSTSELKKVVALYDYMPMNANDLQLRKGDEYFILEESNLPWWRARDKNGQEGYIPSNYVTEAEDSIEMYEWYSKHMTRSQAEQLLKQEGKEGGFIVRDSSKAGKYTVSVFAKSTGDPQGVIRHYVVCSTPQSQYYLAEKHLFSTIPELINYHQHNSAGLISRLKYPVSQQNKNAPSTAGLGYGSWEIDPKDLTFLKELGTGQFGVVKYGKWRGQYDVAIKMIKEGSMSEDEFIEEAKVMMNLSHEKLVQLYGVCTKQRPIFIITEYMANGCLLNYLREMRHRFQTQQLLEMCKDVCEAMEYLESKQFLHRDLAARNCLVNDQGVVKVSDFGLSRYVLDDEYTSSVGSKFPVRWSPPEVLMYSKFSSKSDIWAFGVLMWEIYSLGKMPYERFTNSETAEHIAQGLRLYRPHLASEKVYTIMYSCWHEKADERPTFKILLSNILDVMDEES
Sequence of Mitogen-activated protein kinase 8 (Homo sapiens) (P45983 whole entry, the tested form may be a part): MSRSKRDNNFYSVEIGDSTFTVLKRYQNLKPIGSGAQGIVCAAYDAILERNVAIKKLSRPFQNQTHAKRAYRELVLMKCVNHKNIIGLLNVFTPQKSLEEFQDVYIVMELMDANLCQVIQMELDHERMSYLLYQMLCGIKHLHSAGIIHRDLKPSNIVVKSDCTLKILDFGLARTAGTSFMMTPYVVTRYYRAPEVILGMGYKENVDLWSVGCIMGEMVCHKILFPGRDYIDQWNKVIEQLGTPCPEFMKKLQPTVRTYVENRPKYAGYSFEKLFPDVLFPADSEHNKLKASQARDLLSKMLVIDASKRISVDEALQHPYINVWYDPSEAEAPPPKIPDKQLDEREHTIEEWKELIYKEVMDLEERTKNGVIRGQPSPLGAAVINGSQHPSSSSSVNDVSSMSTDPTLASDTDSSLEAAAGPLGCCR
Sequence of Casein kinase I isoform delta (Homo sapiens) (P48730 whole entry, looked up, canonical isoform): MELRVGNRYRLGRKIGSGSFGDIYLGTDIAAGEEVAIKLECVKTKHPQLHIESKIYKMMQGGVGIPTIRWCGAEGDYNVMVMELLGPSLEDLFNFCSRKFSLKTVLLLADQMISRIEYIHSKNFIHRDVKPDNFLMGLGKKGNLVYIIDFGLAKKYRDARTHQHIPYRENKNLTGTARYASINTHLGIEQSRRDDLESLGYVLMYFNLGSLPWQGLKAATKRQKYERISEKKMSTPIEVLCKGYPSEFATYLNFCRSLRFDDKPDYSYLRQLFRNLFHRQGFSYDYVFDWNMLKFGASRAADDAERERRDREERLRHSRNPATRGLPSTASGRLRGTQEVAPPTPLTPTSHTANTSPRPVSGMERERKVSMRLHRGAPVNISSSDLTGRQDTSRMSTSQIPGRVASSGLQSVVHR

CC(C)c1cc(N2CC[C@@H](N)C2)nc(N)n1
inactive: [1] -2% | [2] 12% | Rattus norvegicus 1% | [3] -9% | [4] 3% | [5] -3% | [6] 4% | [7] 1% | Homo sapiens 4% | [8] 9% | [9] -5% | [10] -9% | [11] -5% | [12] -3% | [13] 1% | [14] -8% | [15] 2% | [16] -6% | [17] -1% | [18] -8% | [19] 8% | [20] 0% | [21] -6% | [22] -5% | [23] -7% | [24] 10% | [25] -10% | [26] 0% | [27] 6% | [28] 6% | [29] -9% | [30] -10% | [31] 8% | [32] 3% | [33] -2% | [34] -7% | [35] -5% | [36] -3% | [37] 23% | [38] 8% | [39] -2% | [40] -5% | [41] -6% | [42] 6% | [43] 7% | [44] -4% | [45] 3% | [46] 12% | [47] 13% | [48] 16%

From ChEMBL document CHEMBL5058644, “Data for DCP probe JNJ-39758979” (2022)
